# Columns and labels:
# Format in all cases: in vivo, rat
# MCAO/R model rats [1] = experiment: Neurological function evaluation (Longa 5-level score) in MCAO/R model rats; conditions: for neurological function scores: 24 hours of reperfusion, Longa score; for neurological function scores compared with the NBP group / efficiency (vs NBP group): NBP 5 mg/kg; for neurological function scores compared with the NBP group: result in words; for efficiency (vs L-NBP group): L-NBP 2.5 mg/kg
# Procedure: (§1) • SHAM group: sham surgery group • Middle cerebral artery occlusion (MCAO) model group • Butylphthalide (NBP): 5 mg/kg • Levobutylphthalide (L-NBP): 2.5 mg/kg • NRB (Compound 1): 15 mg/kg (equivalent to a dose of 4.9 mg/kg of NBP through conversion) • Low dose of L-NRB (compound 2): 7.5 mg/kg (equivalent to a dose of 2.45 mg/kg of L-NBP through conversion) • High dose of L-NRB (compound 2): 15 mg/kg (equivalent to a dose of 4.9 mg/kg of L-NBP through conversion) • Aspirin group (ASP): 10 mg/kg 2. Administration Method
# (§2) The rats in the sham surgery group and the MCAO model group were administered the same amount of normal saline by intraperitoneal administration for 5 consecutive days before modeling, and then the MCAO operation was performed.
# (§3) The middle cerebral artery occlusion (MCAO) model was made by thread-occlusion method. The operation process was strictly conducted in aseptic mode. The main operation process was as follows: the rat was anesthetized by intraperitoneal injection of chloral hydrate, the common carotid artery (CCA), external carotid artery (ECA) and internal carotid artery (ICA) were separated, the common carotid artery was clamped with a microarterial clamp, and the branches of the external carotid artery were electrocoagulated with a bipolar electrocoagulation pen. The main trunk of the external carotid artery was separated and ligated at a distance of 3-4 mm from the bifurcation of the common carotid artery. The internal carotid artery was temporarily clamped with a micro artery clamp. A small incision into the external carotid artery was cut with an ophthalmic scissors, and a 4-0 monofilament nylon thread coated with methylpolysiloxane was inserted. A loose knot was made at the incision of the external carotid artery to block the blood reflux of the internal carotid artery. The micro artery clamp of the internal carotid artery was removed, and the nylon thread is gently pushed into the internal carotid artery to reach the anterior cerebral artery in the skull, to block the opening of the middle cerebral artery (MCA), and the insert depth is approximately 18-22 mm. The microarterial clamp of the common carotid artery was removed, the subcutaneous tissue and skin were sutured layer by layer after disinfection, and the nylon thread was slowly draw out at 2 hours after operation, and the reperfusion was conducted. In the sham surgery group, all operations were the same except that nylon thread was not inserted. The rectal temperature of all rats was maintained at 37° C. throughout the entire experimental process.
# After 24 hours of reperfusion, all rats were evaluated for neurobehavioral scores using the Longa 5-level scoring method. Longa scoring standard: 0, normal, without neurological impairment; 1, left forelimb extension disorder, weakened function; 2, circling to the left, paralysis of the left forelimb and severe impairment of function, and the rat keeps twisting towards the damaged area after lifting the rat's tail; 3, when walking, tilt to the left; 4, limb paralysis, unconscious consciousness.
# MCAO/R model rats [2] = experiment: Cerebral infarction area (TTC staining) in MCAO/R model rats; conditions: for infarction area (%): 24 hours of reperfusion, TTC staining; for efficiency (vs L-NBP model group): L-NBP 2.5 mg/kg; for efficiency (vs NBP model group) / cerebral infarction area compared with the NBP group: NBP 5 mg/kg; for cerebral infarction area compared with the NBP group: result in words
# Procedure: as §1, §2, §3
# After 24 hours of reperfusion, the cerebral infarction area was measured using tetrazolium red (TTC) staining. The rats were killed by cutting the neck, and the whole brain was quickly taken out. After being placed in the refrigerator at −20° C. for a short time and placed on the ice plate, and the olfactory bulb was removed. The forebrain was cut into six slices with a thickness of 2 mm along the coronal plane. The brain slices were placed in 1.5 mL of 2% TTC solution and incubated in dark for 30 minutes. Then the brain slices were fixed in 10% paraformaldehyde overnight, and then photographed for analysis. Use Image-J software to measure and calculate the volume of cerebral infarction.
# [3] = test system: rats with middle cerebral artery occlusion (MCAO) model; experiment: Pre-experiments: reduction of cerebral infarction area in MCAO model rats; conditions: result in words; C compared with B, D compared among 1:2 conjugates
# From the text: Based on the effects of both butylphthalide and dexborneol on improving cerebral circulation and protecting cardio cerebral vessels, the inventor team of this application adopted progressive pre-experiments. First, butylphthalide and dexborneol were simply combined in a molar ratio 1:1 to form a composition.
# [4] = neurological function score, dose 7.5 mg/kg
# [5] = neurological function score, dose 15 mg/kg
# [6] = cerebral infarction area, dose 7.5 mg/kg
# [7] = cerebral infarction area, dose 15 mg/kg
# [8] = neurological function score, dose 2.5 mg/kg
structure (smiles),measurement,setting,value
"CCCCC1OC(=O)c2ccccc21 (racemic) [NBP, (R/S)-3-n-butyl-1(3H)-isobenzofuranone, reference compound]",neurological function scores,MCAO/R model rats [1]; dose 5 mg/kg,2.3 ± 1.0
same,inhibition rate (vs model group),"MCAO/R model rats [1]; neurological function score, dose 5 mg/kg",32.4%
same,infarction inhibition rate (vs model group),MCAO/R model rats [2]; dose 5 mg/kg,34.2%
same,infarction area (%),MCAO/R model rats [2]; dose 5 mg/kg,19.4 ± 7.0 %
CCCC[C@H](OC(=O)CCC(=O)OC1CC2CCC1(C)C2(C)C)c1ccccc1C(=O)OC1CC2CCC1(C)C2(C)C (stereo in doubt) [L-NRB],neurological function scores,MCAO/R model rats [1]; dose 7.5 mg/kg,1.4 ± 0.7**$
same,neurological function scores compared with the NBP group,"MCAO/R model rats [1]; dose 7.5 mg/kg, p<0.05",significant reductions
same,neurological function scores,MCAO/R model rats [1]; dose 15 mg/kg,1.1 ± 0.4**$$&
same,neurological function scores compared with the NBP group,MCAO/R model rats [1]; dose 15 mg/kg,significant reductions
same,inhibition rate (vs model group),MCAO/R model rats [1]; [4],58.8%
same,efficiency (vs L-NBP group),MCAO/R model rats [1]; [4],22.2%
same,efficiency (vs NBP group),MCAO/R model rats [1]; [4],39.1%
same,inhibition rate (vs model group),MCAO/R model rats [1]; [5],67.6%
same,efficiency (vs ASP group),"MCAO/R model rats [1]; neurological function score, dose 15 mg/kg, ASP 10 mg/kg",31.3%
same,efficiency (vs L-NBP group),MCAO/R model rats [1]; [5],38.9%
same,efficiency (vs NBP group),MCAO/R model rats [1]; [5],52.2%
same,efficiency (vs L-NBP model group),MCAO/R model rats [2]; [6],29.1%
same,efficiency (vs NBP model group),MCAO/R model rats [2]; [6],42.3%
same,Efficiency (vs ASP model group),"MCAO/R model rats [2]; cerebral infarction area, dose 15 mg/kg, ASP 10 mg/kg",56.6%
same,efficiency (vs L-NBP model group),MCAO/R model rats [2]; [7],58.2%
same,efficiency (vs NBP model group),MCAO/R model rats [2]; [7],66.0%
same,infarction inhibition rate (vs model group),MCAO/R model rats [2]; dose 7.5 mg/kg,62.0%
same,infarction area (%),MCAO/R model rats [2]; dose 7.5 mg/kg,11.2 ± 4.4**$ %
same,cerebral infarction area compared with the NBP group,"MCAO/R model rats [2]; dose 7.5 mg/kg, p<0.05",significant reductions
same,infarction inhibition rate (vs model group),MCAO/R model rats [2]; dose 15 mg/kg,77.6%
same,infarction area (%),MCAO/R model rats [2]; dose 15 mg/kg,6.6 ± 3.5**$$&& %
same,cerebral infarction area compared with the NBP group,MCAO/R model rats [2]; dose 15 mg/kg,significant reductions
"CC(=O)Oc1ccccc1C(=O)O [ASP, Aspirin, reference compound]",neurological function scores,MCAO/R model rats [1]; dose 10 mg/kg,1.6 ± 0.5
same,inhibition rate (vs model group),"MCAO/R model rats [1]; neurological function score, dose 10 mg/kg",52.9%
same,infarction inhibition rate (vs model group),MCAO/R model rats [2]; dose 10 mg/kg,48.5%
same,infarction area (%),MCAO/R model rats [2]; dose 10 mg/kg,15.2 ± 7.0 %
"CCCC[C@@H]1OC(=O)c2ccccc21 [L-NBP, Levobutylphthalide, reference compound]",neurological function scores,MCAO/R model rats [1]; dose 2.5 mg/kg,1.8 ± 0.6
same,inhibition rate (vs model group),MCAO/R model rats [1]; [8],47.1%
same,efficiency (vs NBP group),MCAO/R model rats [1]; [8],21.7%
same,efficiency (vs NBP model group),"MCAO/R model rats [2]; cerebral infarction area, dose 2.5 mg/kg",18.6%
same,infarction inhibition rate (vs model group),MCAO/R model rats [2]; dose 2.5 mg/kg,46.4%
same,infarction area (%),MCAO/R model rats [2]; dose 2.5 mg/kg,15.8 ± 6.7 %
CCCCC(OC(=O)CCC(=O)O[C@@H]1C[C@@H]2CC[C@@]1(C)C2(C)C)c1ccccc1C(=O)O[C@@H]1C[C@@H]2CC[C@@]1(C)C2(C)C (some centres unmarked) [NRB],neurological function scores,MCAO/R model rats [1]; dose 15 mg/kg,1.3 ± 0.5**$
same,neurological function scores compared with the NBP group,MCAO/R model rats [1]; dose 15 mg/kg,significant reductions
same,inhibition rate (vs model group),MCAO/R model rats [1]; [5],61.8%
same,efficiency (vs NBP group),MCAO/R model rats [1]; [5],43.5%
same,efficiency (vs NBP model group),MCAO/R model rats [2]; [7],44.8%
same,infarction inhibition rate (vs model group),MCAO/R model rats [2]; dose 15 mg/kg,63.7%
same,infarction area (%),MCAO/R model rats [2]; dose 15 mg/kg,10.7 ± 7.9**$ %
same,cerebral infarction area compared with the NBP group,MCAO/R model rats [2]; dose 15 mg/kg,significant reductions
CCCCC(OC(C)=O)c1ccccc1C(=O)O[C@@H]1C[C@@H]2CC[C@@]1(C)C2(C)C (some centres unmarked) [formula B],"activity (pre-experiments, comparison between conjugates)",[3],only slightly improved
CCCCC(OC(=O)CCC(=O)O[C@@H]1C[C@@H]2CC[C@@]1(C)C2(C)C)c1ccccc1C(=O)O[C@@H]1C[C@@H]2CC[C@@]1(C)C2(C)C (some centres unmarked) [formula C],"activity (pre-experiments, comparison between conjugates)",[3],significantly better
CCCC[C@H](OC(=O)CCC(=O)O[C@@H]1C[C@@H]2CC[C@@]1(C)C2(C)C)c1ccccc1C(=O)O[C@@H]1C[C@@H]2CC[C@@]1(C)C2(C)C [formula D],"activity (pre-experiments, comparison between conjugates)",[3],superior

# Reference: US12403116B2, “Hydroxypentyl benzoic acid diester compound, and preparation method and pharmaceutical application thereof” (CHINESE ACADEMY OF MEDICAL SCIENCES INSTITUTE OF MEDICINAL …, priority 2022, dated 2025)
